From the supplement of paper PMC10307832

Columns and labels:
Test in all cases: relative viability (nuclei count vs DMSO), 5 days (fraction); higher = more cells survive
[1] = compound: C1CSC2=C(C(=O)N1)SC3=C2C=C(C=C3)O [kb NB 142-70] + CS(=O)(=O)N1CCN(Cc2cc3nc(-c4cccc5[nH]ncc45)nc(N4CCOCC4)c3s2)CC1 [Pictilisib] (partner 1 µM)
Outline: (§1)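 Relative viability equals treated-well nuclei counts divided by vehicle-well nuclei counts. Counts came from 4× images of lung cancer cell lines grown in 1536-well plates for 5 days after pin-tool dosing on the day after seeding. Dosing used one drug alone or a fixed anchor-drug dose plus five library-drug doses (not always all listed) in √10 steps, and values are medians of duplicate plates.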

[2] = compound: C1CSC2=C(C(=O)N1)SC3=C2C=C(C=C3)O [kb NB 142-70] + O=C(CCCCCCC(=O)Nc1ccccc1)NO [Vorinostat] (partner 1 µM)
Outline: as §1

[3] = compound: NCC(=O)Nc1ccc(-n2nc(C(F)(F)F)cc2-c2ccc3c(ccc4ccccc43)c2)cc1 + CC(=O)Nc1cccc(-n2c(=O)n(C3CC3)c(=O)c3c(Nc4ccc(I)cc4F)n(C)c(=O)c(C)c32)c1 [Trametinib] (partner 0.02 µM)
Outline: as §1

[4] = compound: NCC(=O)Nc1ccc(-n2nc(C(F)(F)F)cc2-c2ccc3c(ccc4ccccc43)c2)cc1 + NC(=O)Nc1cc(-c2cccc(F)c2)sc1C(=O)N[C@H]1CCCNC1 [AZD7762] (partner 0.2 µM)
Outline: as §1

Cell Line	relative viability ([1]; first compound 0.1 µM)	relative viability ([1]; first compound 1 µM)	relative viability ([1]; first compound 3.162 µM)	relative viability ([2]; first compound 0.1 µM)	relative viability ([2]; first compound 1 µM)	relative viability ([2]; first compound 3.162 µM)	relative viability ([3]; first compound 0.02 µM)	relative viability ([3]; first compound 0.06325 µM)	relative viability ([3]; first compound 0.2 µM)	relative viability ([3]; first compound 0.6325 µM)	relative viability ([3]; first compound 2 µM)	relative viability ([4]; first compound 0.02 µM)	relative viability ([4]; first compound 0.06325 µM)	relative viability ([4]; first compound 0.2 µM)	relative viability ([4]; first compound 0.6325 µM)	relative viability ([4]; first compound 2 µM)
LCLC-97TM1	0.216	0.232	0.236	0.82	0.773	0.515	0.21	0.215	0.213	0.198	0.189	0.284	0.253	0.28	0.39	0.159
LCLC-103H	0.631	0.652	0.638	0.856	0.873	0.877	0.67	0.688	0.694	0.67	0.618	0.796	0.79	0.752	0.812	0.818
LK-2	0.483	0.42	0.183	0.417	0.279	0.219	0.659	0.751	0.703	0.826	0.686	0.459	0.47	0.402	0.493	0.381
LOU-NH91	0.526	0.505	0.41	0.915	0.913	0.601	0.847	0.832	0.812	0.803	0.795	0.799	0.783	0.784	0.804	0.795
LU99A	0.305	0.294	0.298	0.486	0.443	0.33	0.548	0.678	0.569	0.56	0.48	0.333	0.387	0.389	0.341	0.355
LXF-289	0.739	0.737	0.749	0.713	0.711	0.51	0.716	0.705	0.67	0.672	0.68	1.14	1.13	1.01	1.12	1.06
NCI-H23	0.517	0.42	0.293	0.703	0.583	0.298	0.313	0.456	0.448	0.422	0.352	0.191	0.249	0.219	0.274	0.277
NCI-H322M	0.54	0.561	0.504	0.942	1.06	0.926	0.521	0.482	0.537	0.5	0.547	0.569	0.711	0.578	0.636	0.681
NCI-H520	0.297	0.282	0.165	0.775	0.681	0.304	0.637	0.641	0.747	0.678	0.679					
NCI-H522				0.983	0.835	0.794	0.596	0.684	0.781	0.92	0.813	0.609	1.09	0.815	0.888	0.828
